Laboratory results as given in PubChem BioAssay AID179 (DTP/NCI, 2004).
Values joined by “and” are separate entries in the source; they are usually repeats but may differ in a detail not shown here. Equal values may be shown once. Active and inactive are the calls of the source.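 How the source made its calls: active means compounds giving half or more protection of infected cells from virus-caused growth loss, again on retest; inactive means the rest.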

System: CEM cells HIV-1 protection, formazan growth assay
Assay: NCI AIDS Antiviral Assay
Settings: for IC50: measured here: growth of uninfected CEM cells
Outline: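 Screen of anti-HIV-1 activity in human CEM cells using a formazan-based growth measurement at five drug concentrations. Hits with 50% or greater protection were repeated, and confirmation required reproducible complete protection.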

## COC(=O)C1=C2Nc3ccccc3C23CCN2CCC(=O)C[C@H](C1)[C@@H]23 (stereo not given in full)
  EC50: > 107 µM
  IC50: > 107 µM

## Cc1ccc(Nc2nc(C)c(C(/C=C/c3ccc(/C=C/C(=N/NC(=O)C[n+]4ccccc4)c4sc(Nc5ccc(C)cc5[N+](=O)[O-])nc4C)cc3)=N\NC(=O)C[n+]3ccccc3)s2)c([N+](=O)[O-])c1
  EC50: > 35.5 µM
  IC50: > 35.5 µM

## CC1=CCC(C)=Nc2nc3ccccc3n21
  EC50: > 200 µM
  IC50: > 200 µM

## Clc1ccc2c(c1)nnn1nccc21
  EC50: > 35.5 µM
  IC50: > 35.5 µM

## O=C(O)Cc1ccc(Nc2nc3cc(C(F)(F)F)ccc3nc2C(=O)O)cc1
  EC50: > 200 µM
  IC50: > 200 µM

## CNc1nc(SC)n(C)c(=O)c1N=O
  outcome: inactive

## CC(C)(CO)/[N+]([O-])=C/c1ccccc1
  EC50: > 200 µM
  IC50: > 200 µM

## O=C(CC(=O)N1N=C(N(c2ccccc2)c2ccccc2)CC1c1ccccc1)Nc1cccc(Cl)c1 (stereo not given)
  EC50: 25.1 µM
  IC50: > 200 µM

## COC(=O)C(=O)C(C(=O)OC)C(=O)C(=O)Nc1c(C)cccc1C (stereo not given)
  EC50: > 204 µM
  IC50: > 204 µM

## CC1(C)Oc2ccc(NC(=O)CCC(N)C(=O)O)cc2O1 (stereo not given)
  EC50: 186 µM
  IC50: > 200 µM

## N#Cc1c(N)c(C(=O)O)nn(-c2cccc(C(F)(F)F)c2)c1=O
  outcome: inactive

## C/C=C/c1cc2c(c(=O)o1)C(=O)[C@@H](O)[C@H](C)O2
  EC50: > 200 µM
  IC50: 3.72 µM

## C#CCCCCCCCCC/C=C1\C[C@H](O)COC1=O
  EC50: > 245 µM
  IC50: 46.8 µM

## CCOC(=S)/C=C/c1ccccc1
  outcome: inactive

## Cc1cc(N(CCC#N)S(C)(=O)=O)ccc1C=Nc1ccc(C(=O)NN2C(=O)/C(=C/c3ccc(N(CCC#N)CCC#N)cc3C)N=C2c2cc([N+](=O)[O-])ccc2Cl)cc1
  EC50: > 42.7 µM
  IC50: > 42.7 µM

## O=C1C=Cc2c(-c3ccccc3)oc3cccc1c23
  outcome: inactive

## CC(=O)NC1c2ccccc2C(C)(C)C12CCC1(CC2)OCCO1 (stereo not given)
  EC50: > 200 µM
  IC50: > 200 µM

## N#Cc1nn(C(N)=O)c(N)c1C#N
  EC50: > 200 µM
  IC50: > 200 µM

## Oc1ccc(Cc2nc3ccccc3[nH]2)cc1
  EC50: > 200 µM
  IC50: > 200 µM

## CC1=C(/C=C/C(C)=C/C=C(C(=O)O)\C(C)=C\C(=O)O)C(C)(C)CCC1
  EC50: > 200 µM
  IC50: > 200 µM

## CC1=C(C(=O)Nc2ccccc2C)C(c2ccc(Cl)c(Cl)c2)C(C(=O)Nc2ccccc2C)=C(C)N1
  outcome: inactive

## Cc1ccc2c(c1)C(=O)N1CSCC1C(=O)S2 (stereo not given)
  EC50: > 251 µM
  IC50: 32.4 µM

## O=CN1CCN(C=S)CC1
  EC50: > 1580 µM
  IC50: > 1580 µM

## CC1(c2ccc(Cl)cc2)OCC(CCl)O1 (stereo not given)
  EC50: > 200 µM
  IC50: > 200 µM

## CC(C)SC1CC2C(CC1(C)O)C2(C)C (stereo not given)
  EC50: > 200 µM
  IC50: > 200 µM and 91.2 µM

## Cc1cc2c(c(C=NCc3ccccc3)c1)OC1(C=C2)Oc2ccccc2C(=O)N1C (stereo not given)
  EC50: > 200 µM
  IC50: 52.5 µM

## O=C(O)Cc1cc(=O)oc2cc(O)c(Cl)cc12
  EC50: > 708 µM
  IC50: > 708 µM

## CC(C)(C)OC(=O)NC(C)(C)C(=O)NCCC(=O)O
  EC50: > 200 µM
  IC50: > 200 µM

## Cc1cc(NS(=O)(=O)c2ccc(NC(=O)c3cccc4c(NNc5ccc(S(=O)(=O)N=C(N)N)cc5)c5ccccc5nc34)cc2)no1
  EC50: > 158 µM
  IC50: 63.1 µM

## COC(=O)C1(C(=O)OC)CC2=C(S(=O)(=O)c3ccccc3)C[C@@H](C#N)[C@H]2C1
  EC50: > 200 µM
  IC50: 110 µM

## CC1C(O)Oc2cc3c(cc2C1c1ccccc1O)OCO3 (stereo not given)
  EC50: > 200 µM
  IC50: 35.5 µM

## CC(C)CC1N=C(OCc2ccccc2)OC1=O (stereo not given)
  EC50: > 200 µM
  IC50: > 200 µM

## CSc1nc(Nc2ccccc2Cl)c2c(N)nn(C)c2n1
  EC50: > 200 µM
  IC50: > 200 µM

## COc1ccc(-c2csc3c2-n2cccc2C3=O)cc1
  EC50: > 2 µM
  IC50: 0.0363 µM

## Cc1ccc(S(=O)(=O)SCCN)cc1
  EC50: > 115 µM
  IC50: > 100 µM

## C=C1CN=C(Nc2ccc(F)cc2F)S1
  EC50: > 200 µM
  IC50: > 100 µM

## CC1OC(OP(=O)(OCc2ccccc2)OCc2ccccc2)C(OC(=O)c2ccccc2)C(OC(=O)c2ccccc2)C1I (stereo not given)
  EC50: > 25.1 µM
  IC50: > 25.1 µM

## CC1(C)C2CCC(=O)C1CC2 (stereo not given)
  EC50: > 200 µM
  IC50: > 200 µM

## Cc1nc(N)c2c(n1)C(C)N(C(=O)c1ccccc1)C2 (stereo not given)
  EC50: > 135 µM
  IC50: > 135 µM

## O=C1c2c(ccc3c2CCCC3)CC1Cc1ccc2c(c1)CCCC2 (stereo not given)
  EC50: > 200 µM
  IC50: > 200 µM

## CCCCN=C(N)N=C(N)N
  EC50: > 200 µM
  IC50: 93.3 µM

## O=C[C@@H](CO)O[C@H](C=O)c1c[nH]c(=O)[nH]c1=O
  EC50: > 1020 µM
  IC50: 107 µM

## COC(=O)C1Cc2c(n(C)c3ccccc23)C(CCC(=O)O)N1Cc1ccccc1 (stereo not given)
  outcome: inactive

## Cc1cc(S(=O)(=O)Nc2nc(N)nc(N(C)C)n2)c(SC(C(=O)O)c2ccccc2)cc1Cl (stereo not given)
  EC50: 85.1 µM
  IC50: > 200 µM

## C=CCC12CC(OC)C(O)CC1(O)OC(c1cc(OC)c(OC)c(OC)c1)C2C (stereo not given)
  EC50: > 200 µM
  IC50: > 200 µM

## O=c1c(Nc2ccccc2)cn(CCOc2ccc(Cl)cc2)c(=O)n1CCOc1ccc(Cl)cc1
  EC50: > 200 µM
  IC50: 145 µM

## CNC(=O)[C@H](Cc1ccccc1)NC(=O)N(CCC#N)CCN(C(=O)N[C@@H](Cc1ccccc1)C(=O)OC)c1ccccc1
  EC50: > 200 µM
  IC50: > 200 µM

## COc1ccc(-c2nc3ccc([N+](=O)[O-])cc3c(=O)[nH]2)cc1
  outcome: inactive

## COC1(C)C[C@@]23CC[C@@H]4C(C)(C(=O)O)CCCC4(C)[C@@H]2CC[C@@H]1C3 (stereo not given in full)
  EC50: > 200 µM
  IC50: 120 µM

## CCOC(=O)C(NNc1ccccc1)C(c1ccccc1)[P+](c1ccccc1)(c1ccccc1)c1ccccc1 (stereo not given)
  EC50: > 200 µM
  IC50: 3.63 µM

## O=NNc1ccc(-c2ccccc2)cn1
  EC50: > 200 µM
  IC50: 43.7 µM

## CN1N=CSC12C(=O)N(c1ccccc1)C(=O)N2c1ccccc1 (stereo not given)
  outcome: inactive

## Cc1c(C)c2ccc3oc4ccccc4c3c2oc1=O
  EC50: > 38 µM
  IC50: > 38 µM

## OC(C#CC(O)(c1ccccc1)c1ccccc1)(c1ccccc1)c1ccccc1
  EC50: > 200 µM
  IC50: 11 µM

## Cc1cc(C)n2c(-c3ccccc3)c(C)cc2n1
  EC50: > 110 µM
  IC50: 17.4 µM

## Cc1cccc(C(C)(C)C)c1NC(=O)C(=O)C(C(=O)/C=C\c1ccccc1)C1OC(=O)c2ccccc21 (stereo not given)
  EC50: > 214 µM
  IC50: 58.9 µM

## O=C1CC2C=CC(O)C(C1)C2 (stereo not given)
  EC50: > 200 µM
  IC50: > 200 µM

## O=C1C=CC2OC(c3ccccc3)C(O)C2O1 (stereo not given)
  EC50: > 1070 µM
  IC50: 11.5 µM

## CCCCN(CCCC)C(=Nc1ccccc1)N(CCCC)CCCC
  EC50: > 138 µM
  IC50: 24 µM

## CC(=O)Nc1c(I)c(NC(C)=O)c(I)c(C(=O)O)c1I
  outcome: inactive

## COc1ccc(N2C(=O)C(=O)N(C)C2=O)c2ccccc12
  outcome: inactive

## COc1c2occc2c([N+](=O)[O-])c2ccc(=O)oc12
  EC50: > 30.9 µM
  IC50: 26.3 µM

## CCOC(=O)CCC(NC(=O)OCc1ccccc1)C(=O)NC(CCC(=O)OCC)C(=O)NC(CCC(=O)OCC)C(=O)NNC(=O)OC(C)(C)C (stereo not given)
  EC50: > 200 µM
  IC50: > 200 µM

## COc1c(C)cc(C(=O)c2cc(C)c(OC)c(Br)c2)cc1Br
  EC50: > 100 µM
  IC50: 95.5 µM

## CCOC(=O)Nn1c(C)nnc1-c1ccccc1
  EC50: > 200 µM
  IC50: > 200 µM
